{"source": "paper PMC12040169", "about": "(PLOS Biology, 2025)"}
{"assay": "in vitro", "conditions": "human, hela cells, % viability", "units": {"viability at 28.5 h, 10 µM": "%"}}
{"smiles": "Cn1nc(-c2ccccc2)cc1[C@H]1CN2CC[C@H]1C[C@@H]2CNC(=O)NCc1ccccc1", "note": "[CBK289098]", "viability at 28.5 h, 10 µM": 104}
{"smiles": "CN1CCC2(CC1)SC(=O)Nc1ccc(Br)cc12", "note": "[CBK017821B]", "viability at 28.5 h, 10 µM": 100}
{"smiles": "CN(C)CC(=O)N/N=C/c1ccsc1", "note": "[CBK008256C]", "viability at 28.5 h, 10 µM": 110}
{"smiles": "CCCOc1ccc(OC(=O)COc2ccccc2)cc1", "note": "[CBK160853]", "viability at 28.5 h, 10 µM": 93.3}
{"smiles": "COc1cccc(Oc2cnc(-c3cccc(C(F)(F)F)c3)c(N)n2)c1", "note": "[CBK145177]", "viability at 28.5 h, 10 µM": 94.2}
{"smiles": "CCOC(=O)C1CCN(S(=O)(=O)c2ccccc2C#N)CC1", "note": "[CBK051111]", "viability at 28.5 h, 10 µM": 93.6}
{"smiles": "O=C(C1CCCC1)N1C[C@@H]2CCCCN(Cc3cccnc3)[C@@H]2C1", "note": "[CBK285492]", "viability at 28.5 h, 10 µM": 101}
{"smiles": "COc1cc(C)c(CN2CCN(S(=O)(=O)c3cc(C(=O)O)cs3)CC2)cc1OC", "note": "[CBK297093]", "viability at 28.5 h, 10 µM": 97.2}
{"smiles": "CC(C)[C@H]1CN(Cc2ccco2)CCN1Cc1ccco1", "note": "[CBK284271]", "viability at 28.5 h, 10 µM": 79.3}
{"smiles": "Cc1nnc(SCc2ccc(CSc3nnc(C)n3N)cc2)n1N", "note": "[CBK265561]", "viability at 28.5 h, 10 µM": 106}
{"smiles": "CC(Sc1ncc(-c2ccc(F)cc2)n1Cc1ccccc1)C(=O)NC1CC1", "note": "(stereo not shown) [CBK297105]", "viability at 28.5 h, 10 µM": 108}
{"smiles": "CC(C)Nc1cc(OC2CCOC2)ncn1", "note": "(stereo not shown) [CBK115888]", "viability at 28.5 h, 10 µM": 93.4}
{"smiles": "Cc1cc(N2CCOC(c3cccs3)C2)ccn1", "note": "(stereo not shown) [CBK304691]", "viability at 28.5 h, 10 µM": 96.2}
{"smiles": "COc1ccc(C(=O)N2CCC(N(C)Cc3ccc(-c4ccc(S(C)(=O)=O)cc4)nc3)CC2)cc1Cl", "note": "[CBK165991T]", "viability at 28.5 h, 10 µM": 95.8}
{"smiles": "Cc1nc2n(CCN3CCCCC3)c3ccccc3n2n1", "note": "[CBK278258C]", "viability at 28.5 h, 10 µM": 91.5}
{"smiles": "O=C(O)c1ccc(NC(=O)c2cc(S(=O)(=O)N3CCCCC3)cs2)cc1", "note": "[CBK265722]", "viability at 28.5 h, 10 µM": 101}
{"smiles": "CC(=O)N1CCC(c2nc(C3CCCC3)no2)C1", "note": "(stereo not shown) [CBK285452]", "viability at 28.5 h, 10 µM": 104}
{"smiles": "O=C(Cn1ccc(=O)[nH]c1=O)NCc1cccnc1-n1cccn1", "note": "[CBK305705]", "viability at 28.5 h, 10 µM": 85}
{"smiles": "CC(C)n1c(=O)n(CC(=O)NCc2cccs2)c2cccnc21", "note": "[CBK283699]", "viability at 28.5 h, 10 µM": 88.6}
{"smiles": "CCN(CC)C(=O)CN1C(=O)C2(Nc3ccccc3C(=O)N2c2ccc(C)cc2)c2ccccc21", "note": "(stereo not shown) [CBK093478]", "viability at 28.5 h, 10 µM": 86}
{"smiles": "COc1nc2ccccc2nc1CCC(=O)NC(C)c1ccccc1", "note": "(stereo not shown) [CBK270065]", "viability at 28.5 h, 10 µM": 100}
{"smiles": "Cc1[nH]c2ccc(C(=O)N(Cc3ccccc3)C3CC3)cc2c1C", "note": "[CBK297913]", "viability at 28.5 h, 10 µM": 89.1}
{"smiles": "COc1ccc(Oc2coc3c(CN(C)C)c(O)ccc3c2=O)cc1", "note": "[CBK263653]", "viability at 28.5 h, 10 µM": 95.7}
{"smiles": "CCOc1cc(S(=O)(=O)NCc2ccccn2)ccc1Cl", "note": "[CBK266817]", "viability at 28.5 h, 10 µM": 99.2}
{"smiles": "CN(C)CCCC(=O)N1CCN(C(=O)c2ccco2)CC1", "note": "[CBK144445]", "viability at 28.5 h, 10 µM": 111}
{"smiles": "O=C1CCC(=O)N1CCOc1nccnc1OC1CCN(CCOc2ccccc2)CC1", "note": "[CBK084354]", "viability at 28.5 h, 10 µM": 101}
{"smiles": "O=C(NCCn1c(-c2ccncc2)nc2ccccc21)c1ccc(F)c(F)c1", "note": "[CBK288577]", "viability at 28.5 h, 10 µM": 88.9}
{"smiles": "Cc1ccccc1C(NC(=O)C1CCN(C(=O)NCCc2ccccc2)CC1)c1ncccc1C", "note": "(stereo not shown) [CBK060409]", "viability at 28.5 h, 10 µM": 91}
{"smiles": "CC(NC(=O)c1ccc(-c2ccccc2F)s1)C(=O)N1CCCCC1", "note": "(stereo not shown) [CBK305740]", "viability at 28.5 h, 10 µM": 91.3}
{"smiles": "COc1ccc(C(NC(=O)[C@H]2CCCN2C(=O)c2c(-c3ccccc3)noc2C)c2ccccc2C)cn1", "note": "(stereo partly shown) [CBK075055]", "viability at 28.5 h, 10 µM": 98.4}
{"smiles": "O=C(CSc1ccccc1[N+](=O)[O-])Oc1ccccc1", "note": "[CBK265501]", "viability at 28.5 h, 10 µM": 106}
{"smiles": "FC(F)(F)c1ccc2c(c1)N(CCCN1CCCC1)c1ccccc1S2", "note": "[CBK015520C]", "viability at 28.5 h, 10 µM": 88}
{"smiles": "CCC(=O)Nc1nc(-c2ccc(OC)cc2)cs1", "note": "[CBK070494]", "viability at 28.5 h, 10 µM": 85.7}
{"smiles": "Cc1cc(C(F)(F)F)nc2sc(C(=O)c3ccc4c(c3)OCO4)c(N)c12", "note": "[CBK074388]", "viability at 28.5 h, 10 µM": 94.5}
{"smiles": "CCOc1cccc(-c2cncc(N3CCCC3CO)n2)c1", "note": "(stereo not shown) [CBK066004]", "viability at 28.5 h, 10 µM": 89.7}
{"smiles": "COC(=O)c1ccc(S(=O)(=O)N2CCc3ccccc3C2)cc1", "note": "[CBK068696]", "viability at 28.5 h, 10 µM": 109}
{"smiles": "N#Cc1c(NC(=O)C(=O)NCc2ccccn2)sc2c1CCCC2", "note": "[CBK269360]", "viability at 28.5 h, 10 µM": 95.9}
{"smiles": "CCOC(=O)c1cnc(C2CC2)nc1NCc1cccc(C)c1C", "note": "[CBK114707]", "viability at 28.5 h, 10 µM": 102}
{"smiles": "CN1CC(C(=O)N(C)Cc2nc(-c3ccccc3)no2)NC1=O", "note": "(stereo not shown) [CBK306727]", "viability at 28.5 h, 10 µM": 108}
{"smiles": "Cc1ccc(OCC(=O)Nc2sc(C)c(C)c2C#N)c([N+](=O)[O-])c1", "note": "[CBK268162]", "viability at 28.5 h, 10 µM": 101}
{"smiles": "Cc1occc1-c1nnc(SC2CCCCN(C(=O)c3ccc(Cl)cc3)C2=O)n1C", "note": "(stereo not shown) [CBK296990]", "viability at 28.5 h, 10 µM": 97.9}
{"smiles": "c1nc(OCCN2CCOCC2)cc(N2CCCN(CCN3CCOCC3)CC2)n1", "note": "[CBK083647]", "viability at 28.5 h, 10 µM": 103}
{"smiles": "Cc1ccc(NS(=O)(=O)c2cc(C(=O)Nc3ccc(S(=O)(=O)N4CCCC4)cc3)ccc2C)cc1", "note": "[CBK268784]", "viability at 28.5 h, 10 µM": 89.8}
{"smiles": "O=C(NCc1nnc(-c2cccs2)o1)c1cccc(-c2ccc(F)cc2)c1", "note": "[CBK286296]", "viability at 28.5 h, 10 µM": 86.9}
{"smiles": "CCCc1ccc(C(=O)NCC(C)n2cncn2)o1", "note": "(stereo not shown) [CBK282883]", "viability at 28.5 h, 10 µM": 92.5}
{"assay": "in vitro", "conditions": "human, hela cells, % viability, bulk resorufin, single well", "units": {"viability at 28.5 h, 10 µM": "%"}}
{"smiles": "CCC(=O)N1CCC(C#N)(c2ccccc2)CC1", "note": "[CBK091400]", "viability at 28.5 h, 10 µM": 87}
